Results taken from patent US6737383B1, “Herbicidal oxadiazolidines” (priority 1999, dated 2004).

Experiments:
[1] = tested on: corn; assay: Test B pre/postemergence corn; format: in vivo, Zea mays; details: for Corn plant response rating: scale of 0 to 10 where 0 is no effect and 10 is complete control
Method in brief: (§1)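 Test chemicals in a non-phytotoxic solvent mixture with surfactant were sprayed preemergence onto planted seeds and postemergence onto plants 2 to 18 cm tall (1- to 4-leaf stage). After twelve to sixteen days in a greenhouse, injury was visually rated against untreated controls from 0 (no effect) to 10 (complete control).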

[2] = tested on: sugar beet; assay: Test B pre/postemergence sugar beet; format: in vivo, Beta vulgaris; details: for Sugarbeets plant response rating: scale of 0 to 10 where 0 is no effect and 10 is complete control
Method in brief: as §1

[3] = tested on: surinam grass; assay: Test B pre/postemergence surinam grass; format: in vivo, Brachiaria decumbens
Method in brief: as §1

[4] = tested on: cocklebur; assay: Test B pre/postemergence cocklebur; format: in vivo, Xanthium strumarium; details: for Cocklebur plant response rating: scale of 0 to 10 where 0 is no effect and 10 is complete control
Method in brief: as §1

[5] = tested on: rape; assay: Test B pre/postemergence rape; format: in vivo, Brassica napus; details: for Rape plant response rating: scale of 0 to 10 where 0 is no effect and 10 is complete control
Method in brief: as §1

[6] = tested on: rice; assay: Test B flood test rice; format: in vivo, Oryza sativa
Method in brief: (§2)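 Plants were grown to the 2-leaf stage before treatment with test chemical, then held in a greenhouse for twelve to sixteen days. Injury was visually rated against untreated controls on a 0–10 scale, where 0 is no effect and 10 is complete control.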

[7] = tested on: blackgrass; assay: Test B pre/postemergence blackgrass; format: in vivo, Alopecurus myosuroides
Method in brief: as §1

[8] = tested on: pigweed; assay: Test B pre/postemergence pigweed; format: in vivo, Amaranthus retroflexus; details: for Redroot pigweed plant response rating: scale of 0 to 10 where 0 is no effect and 10 is complete control
Method in brief: as §1

[9] = tested on: bedstraw; assay: Test B pre/postemergence bedstraw; format: in vivo, Galium aparine
Method in brief: as §1

[10] = tested on: bamyardgrass; assay: Test B flood test barnyardgrass; format: in vivo, Echinochloa crus-galli
Method in brief: as §2

[11] = tested on: velvetleaf; assay: Test B pre/postemergence velvetleaf; format: in vivo, Abutilon theophrasti; details: for Velvetleaf plant response rating: scale of 0 to 10 where 0 is no effect and 10 is complete control
Method in brief: as §1

[12] = tested on: purple nutsedge; assay: Test B pre/postemergence purple nutsedge; format: in vivo, Cyperus rotundus; details: for Nutsedge plant response rating: scale of 0 to 10 where 0 is no effect and 10 is complete control
Method in brief: as §1

[13] = tested on: morningglory; assay: Test B pre/postemergence morningglory; format: in vivo, Ipomoea hederacea; details: for Morningglory plant response rating: scale of 0 to 10 where 0 is no effect and 10 is complete control
Method in brief: as §1

[14] = tested on: giant foxtail; assay: Test B pre/postemergence giant foxtail; format: in vivo, Setaria faberii; details: for Giant foxtail plant response rating: scale of 0 to 10 where 0 is no effect and 10 is complete control
Method in brief: as §1

[15] = tested on: duck salad; assay: Test B flood test duck salad; format: in vivo, Heteranthera limosa
Method in brief: as §2

[16] = Postemergence, Rate 125 g/ha, scale 0 to 10, 0 is no effect, 10 is complete control
[17] = Preemergence, Rate 62 g/ha, scale 0 to 10 (0 no effect, 10 complete control)
[18] = Rate 500 g/ha, Postemergence, scale 0 to 10, 0 no effect, 10 complete control
[19] = Preemergence, Rate 250 g/ha, scale of 0 to 10 where 0 is no effect and 10 is complete control
[20] = Preemergence, Rate 500 g/ha, scale of 0 to 10 where 0 is no effect and 10 is complete control
[21] = Rate 62 g/ha, Postemergence, scale of 0 to 10 where 0 is no effect and 10 is complete control
[22] = Rate 250 g/ha, Postemergence, scale of 0 to 10 where 0 is no effect and 10 is complete control
[23] = Postemergence (flood test), Rate 125 g/ha, scale 0 to 10, 0 is no effect, 10 is complete control
[24] = Rate 62 g/ha, Postemergence (flood test species), scale of 0 to 10 where 0 is no effect and 10 is complete control
[25] = Rate 500 g/ha, listed under Postemergence (flood test species), scale 0 to 10, 0 no effect, 10 complete control

CC(C)C(C)n1c(=O)on(C(=O)N(c2ccccc2)C(C)C)c1=O (stereo not shown) [Compound 355]
7: Redroot pigweed plant response rating (0 to 10 scale) ([8]; Preemergence, Rate 125 g/ha)
1: Barnyardgrass plant response rating [10, 24]
10: Blackgrass plant response rating [7, 20] | Redroot pigweed plant response rating ([8]; Preemergence, Rate 250 g/ha) | Redroot pigweed plant response rating ([8]; Preemergence, Rate 500 g/ha) | Plant response rating, Giant foxtail [14, 17] | Giant foxtail plant response rating (0 to 10 scale) ([14]; Preemergence, Rate 125 g/ha) | Giant foxtail plant response rating ([14]; Preemergence, Rate 250 g/ha) | Giant foxtail plant response rating ([14]; Preemergence, Rate 500 g/ha)
9: Bedstraw plant response rating [9, 20]
5: Rape plant response rating ([5]; Preemergence, Rate 500 g/ha) | Blackgrass plant response rating [7, 19] | Velvetleaf plant response rating ([11]; Preemergence, Rate 500 g/ha) | Plant response rating, Morningglory [13, 16]
2: Sugarbeets plant response rating ([2]; Preemergence, Rate 250 g/ha) | B. signalgrass plant response rating (0 to 10 scale, 0 is no effect, 10 is complete control) ([3]; Preemergence, Rate 125 g/ha) | Plant response rating, B. signalgrass [3, 18] | Plant response rating, Blackgrass [7, 17] | Velvetleaf plant response rating (0 to 10 scale) ([11]; Preemergence, Rate 125 g/ha) | Plant response rating, Velvetleaf [11, 18] | Morningglory plant response rating ([13]; Preemergence, Rate 500 g/ha) | Morningglory plant response rating ([13]; Rate 62 g/ha, Postemergence) | Plant response rating, Giant foxtail [14, 16] | Giant foxtail plant response rating ([14]; Rate 62 g/ha, Postemergence)
3: Corn plant response rating ([1]; Preemergence, Rate 250 g/ha) | Sugarbeets plant response rating ([2]; Preemergence, Rate 500 g/ha) | B. signalgrass plant response rating [3, 19] | Plant response rating, Blackgrass [7, 16] | Blackgrass plant response rating [7, 21] | Plant response rating, Redroot pigweed [8, 18] | Velvetleaf plant response rating ([11]; Preemergence, Rate 250 g/ha)
8: Plant response rating, Barnyardgrass [10, 23] | Plant response rating, Barnyardgrass ([10]; Rate 250 g/ha, Postemergence (flood test species), scale of 0 to 10 where 0 is no effect and 10 is complete control) | Plant response rating, Barnyardgrass [10, 25] | Plant response rating, Morningglory [13, 18] | Plant response rating, Giant foxtail [14, 18]
0: Plant response rating, Corn [1, 16] | Plant response rating, Corn [1, 17] | Corn plant response rating (0 to 10 scale) ([1]; Preemergence, Rate 125 g/ha) | Corn plant response rating ([1]; Rate 62 g/ha, Postemergence) | Plant response rating, Corn [1, 18] | Plant response rating, Sugarbeets [2, 16] | Plant response rating, Sugarbeets [2, 17] | Sugarbeets plant response rating (0 to 10 scale) ([2]; Preemergence, Rate 125 g/ha) | Sugarbeets plant response rating ([2]; Rate 62 g/ha, Postemergence) | Plant response rating, Sugarbeets [2, 18] | Plant response rating, B. signalgrass [3, 16] | Plant response rating, B. signalgrass [3, 17] | B. signalgrass plant response rating [3, 21] | Plant response rating, B. signalgrass [3, 22] | Plant response rating, Cocklebur [4, 16] | Plant response rating, Cocklebur [4, 17] | Cocklebur plant response rating (0 to 10 scale) ([4]; Preemergence, Rate 125 g/ha) | Cocklebur plant response rating ([4]; Preemergence, Rate 250 g/ha) | Cocklebur plant response rating ([4]; Rate 62 g/ha, Postemergence) | Plant response rating, Rape [5, 16] | Plant response rating, Rape [5, 17] | Rape plant response rating (0 to 10 scale) ([5]; Preemergence, Rate 125 g/ha) | Rape plant response rating ([5]; Preemergence, Rate 250 g/ha) | Rape plant response rating ([5]; Rate 62 g/ha, Postemergence) | Plant response rating, Rape [5, 18] | Plant response rating, Rice [6, 23] | Rice plant response rating [6, 24] | Plant response rating, Rice [6, 25] | Plant response rating, Redroot pigweed [8, 16] | Redroot pigweed plant response rating ([8]; Rate 62 g/ha, Postemergence) | Plant response rating, Bedstraw [9, 16] | Plant response rating, Bedstraw [9, 17] | Bedstraw plant response rating [9, 19] | Bedstraw plant response rating [9, 21] | Plant response rating, Bedstraw [9, 22] | Plant response rating, Bedstraw [9, 18] | Plant response rating, Velvetleaf [11, 16] | Plant response rating, Velvetleaf [11, 17] | Velvetleaf plant response rating ([11]; Rate 62 g/ha, Postemergence) | Plant response rating, Nutsedge [12, 16] | Plant response rating, Nutsedge [12, 17] | Nutsedge plant response rating (0 to 10 scale) ([12]; Preemergence, Rate 125 g/ha) | Nutsedge plant response rating ([12]; Preemergence, Rate 250 g/ha) | Nutsedge plant response rating ([12]; Preemergence, Rate 500 g/ha) | Nutsedge plant response rating ([12]; Rate 62 g/ha, Postemergence) | Plant response rating, Nutsedge [12, 18] | Plant response rating, Morningglory [13, 17] | Morningglory plant response rating (0 to 10 scale) ([13]; Preemergence, Rate 125 g/ha) | Morningglory plant response rating ([13]; Preemergence, Rate 250 g/ha) | Plant response rating, Ducksalad [15, 23] | Ducksalad plant response rating [15, 24] | Plant response rating, Ducksalad [15, 25]
6: B. signalgrass plant response rating [3, 20] | Plant response rating, Blackgrass [7, 22] | Plant response rating, Blackgrass [7, 18]
4: Corn plant response rating ([1]; Preemergence, Rate 500 g/ha) | Plant response rating, Cocklebur [4, 18] | Blackgrass plant response rating (0 to 10 scale) ([7]; Preemergence, Rate 125 g/ha)
